The record followed here is paper PMC10009108, “Design, synthesis and screening of indole acetic acid-based tri-azo moieties as antioxidants, anti-microbial and cytotoxic agents” (Frontiers in Pharmacology, 2023).

The subject of data set [1] is Streptomyces 85 E strains. The data set can be described thus: Protein kinase inhibition assay. The class given is cell-based. The following applies: Sample Concentration = 20 μg/mL; Surfactin B 20 μg/mL.
Data set [2] deals with Aspergillus flavus (FCBP-0064). The data set can be described thus: Antifungal disc diffusion assay. The class given is cell-based. Also noted: key to Zone of inhibition, A. flavus: --- = no anti-fungal activity. The following applies: 20 μg/disc. Here is the method:
(§1) The antifungal response to these chemical moieties was evaluated through a procedure designated by ([Zahra et al., 2017]). Amphotericin B (4 mg/mL DMSO) is used as + ve control and DMSO as-ve one (5 μL/disc). Sterile SDA-coated plates were used, on which 100 µL of suspension of spores for each strain (previously reaped-in-Tween-20 solution) was spread. Discs of sterile filter paper containing 5 µL of sample solution (4 mg/mL DMSO) were kept on plates and incubated for 2 days at 28°C. Zones of inhibition were recorded.
(§2) The Synthetic compound library was subjected to an antifungal assay using five different strains of Fungai, i.e., Fusarium solani (FCBP-0291), Aspergillus fumigatus (FCBP-66), Aspergillus flavus (FCBP-0064), Aspergillus niger (FCBP-0198) and Mucor species (FCBP-0300). Amphotericin B was the standard drug used. […] The outcomes are concise in Table 5.
(In general: Agar diffusion results depend on both activity and mobility in agar.)

The subject of data set [3] is Mucor species (FCBP-0300). The data set can be described thus: Antifungal disc diffusion assay. The class given is cell-based. Also noted: key to Zone of inhibition, Mucor: --- = no anti-fungal activity. The settings on record: 20 μg/disc. Here is the method: as §1, §2
Data set [4] relates to Klebsiella pneumoniae (ATCC-1705). The data set can be described thus: Antibacterial assay, micro broth dilution. The format is cell-based. The settings on record: ATCC1705. From the text:
(§3) The micro broth dilution method was used to establish the antibacterial potential of test samples against Staphylococcus aureus (ATCC-6538), Bacillus subtilis (ATCC-6633), Escherichia coli (ATCC-25922), Klebsiella pneumoniae (ATCC-1705), and Pseudomonas aeruginosa (ATCC-15442) and for the resistant strains of MRSA Staphylococcus aureus, P. aeruginosa and Escherichia coli. The procedure used is described by ([Sarker et al., 2007]). Bacterial inoculum was formed under aseptic conditions keeping the density near 5 × 10^4 CFU/mL in pre-autoclaved nutrient broth. Test samples of an aliquot of 5 µL were shifted to labeled wells of 96 well plates, and after that addition of 195 µL of nutrient broth; was accomplished. After that, a 2-fold serial dilution of every sample was arranged to get final concentrations of 12.5 μg/mL. Then, with the help of a micropipette, 195 µL of bacterial culture of respective strains was poured into each well; further advancement was incubating of plates for 30 min at the temperature of 37°C. […] Incubation of plates was again carried out at 37°C for 1 day, absorbance was noted, and net change in turbidity was the difference between two values of absorbance.
(§4) Schiff base tri-azo compounds were investigated for antibacterial potential. […] 6.25 μg/mL for 5b and 5g, and the least, Table 4 3.12 μg/mL was for 5f. […] Substituents with electron-withdrawing attributes, e.g., -NO2, -Cl, -OH on the aromatic ring, assert a great impact on the antibacterial activity of synthetic compounds. It is also observed that an increase in the number of -OH groups tend to enhance the activity ([Hosamani and Shingalapur, 2011]). Due to the difference in cell-wall composition of Gram + ve and -ve bacteria, different compounds show different features towards the same micro-organism ([Goszczyn’ska et al., 2015]).
(Dilution methods test growth across graded concentrations, often in twofold steps.)

For data set [5], the system named is MRSA. The data set can be described thus: Antibacterial assay, resistant strains. The format is cell-based, Staphylococcus aureus. The following applies: 25 μg/mL; resistant strain.
Data set [6] can be described thus: in vivo. How it is done: The cytotoxic evaluation was accomplished using the decorum designed by ([Khan et al., 2011]). To a plate of 96 wells, artificial seawater and nauplii were added. Test samples were taken in wells (40, 20, 10, 5 μg/mL) after making up the final volume with seawater, the plates were left uncovered under the lamp, and after 24 h, the number of surviving larvae was calculated. For samples having ≥50% mortality, the median lethal conc was calculated using the table curve software, Doxorubicin was used as + ve control, and DMSO was the -ve. The percentage of killed organisms was found using the formula. Percentage Mortality=No of dead shrimps÷Total Number of Shrimps×100
The results of all the experiments were articulated as mean ± SD. Each test was performed in triplicate. TAC assay was analyzed by one-way analysis of variance (ANOVA) following DUNCAN’S test using the statistical package for social sciences 18 and p < 0.05 was considered as significant where appropriate. For samples having ≥50% mortality, the median lethal concentration (LC50) was calculated using the table curve software.
This evaluation test forms the basis for the bioactive scanning of compounds for their potential as anti-cancer moieties, to be investigated on a large scale ([Amanullah et al., 2012]). […] Similarities between Artemia salina and mammalian cells have been reported due to DNA-dependent RNA polymerases ([Birndorf et al., 1975]). These Schiff bases were investigated for their cytotoxic potential. […] Doxorubicin was used as the positive control.

Data set [7] has as its system resistant S. aureus. The data set can be described thus: Antibacterial assay, resistant strains. The class given is cell-based, Staphylococcus aureus. Also noted: key to Antibacterial activity, resistant S. aureus: Activity: Positive = have anti-bacterial activity; --- = no anti-bacterial activity. The settings on record: 25 μg/mL; resistant strain.
Source text: as §3, §4

Data set [8] deals with Aspergillus niger (FCBP-0198). As to the kind of experiment: Antifungal disc diffusion assay. The format is cell-based. The following applies: 20 μg/disc. Also noted: key to Zone of inhibition, A. niger: --- = no anti-fungal activity. How it is done:
as §1, §2

Data set [9] deals with resistant P. aeruginosa. As to the kind of experiment: Antibacterial assay, resistant strains. The class given is cell-based. Also noted: key to Antibacterial activity, resistant P. aeruginosa: Activity: Positive = have anti-bacterial activity; --- = no anti-bacterial activity. The settings on record: 25 μg/mL; resistant strain.
Source text: as §3, §4

For data set [10], the system named is Fusarium solani (FCBP-0291). The data set can be described thus: Antifungal disc diffusion assay. The class given is cell-based. The settings on record: 20 μg/disc. Also noted: key to Zone of inhibition, F. solani: --- = no anti-fungal activity. How it is done: as §1, §2
The test system of data set [11] is Pseudomonas aeruginosa (ATCC-15442). The data set can be described thus: Antibacterial assay, micro broth dilution. The format is cell-based. Also noted: key: Active = Bacterial activity; --- = no activity. The following applies: 25 μg/mL.
For data set [12], the system named is resistant E.coli. The data set can be described thus: Antibacterial assay, resistant strains. The class given is cell-based, Escherichia coli. Also noted: key to Antibacterial activity, resistant E.coli: Activity: Positive = have anti-bacterial activity; --- = no anti-bacterial activity. The settings on record: 25 μg/mL; resistant strain.
Source text: as §3, §4

For data set [13], the system named is Aspergillus fumigatus (FCBP-66). The data set can be described thus: Antifungal disc diffusion assay. The settings on record: 20 μg/disc. Also noted: key to Zone of inhibition, A. fumigatus: --- = no anti-fungal activity. The format is cell-based. Here is the method:
as §1, §2

Data set [14] deals with Escherichia coli (ATCC-25922). As to the kind of experiment: Antibacterial assay, micro broth dilution. The class given is cell-based. Also noted: key: Active = Bacterial activity; --- = no activity. The settings on record: 25 μg/mL.
The subject of data set [15] is Staphylococcus aureus (ATCC-6538). As to the kind of experiment: Antibacterial assay, micro broth dilution. The format is cell-based. Also noted: key: Active = Bacterial activity; --- = no activity. The following applies: 25 μg/mL.

≈ marks a conversion by molar mass, not a printed value.

With `COc1cc(C=Nn2c(Cc3c[nH]c4ccccc34)n[nH]c2=S)cc(OC)c1OC` [Compound 5g], in data set [1], the Bald zone stood at 7.5 mm and the Clear zone is on record as 6 mm. Further, the “Zone of inhibition, A. flavus” value in data set [2] was “---”. Also, the “Zone of inhibition, Mucor” value in [3] was “---”. In [4], 6.25 µg/mL (≈ 14.8 µM) was the least that counted as inhibitory (MIC). For the same compound, in data set [5], the “Antibacterial activity, MRSA: Activity” value is given as “Active”. Moreover, in data set [6], the LC50 (usually the concentration that kills 50% of the test population) at 24 h was 18.2 µg/mL (≈ 42.9 µM). In addition, the “Antibacterial activity, resistant S. aureus: Activity” value in [7] is recorded as “---”. Also, the “Zone of inhibition, A. niger” value in data set [8] was “---”. For the same compound, in data set [9], the “Antibacterial activity, resistant P. aeruginosa: Activity” value was “---”. For the same compound, the “Zone of inhibition, F. solani” value in data set [10] is listed as “---”. Further, the “Antibacterial activity, Pseudomonas aeruginosa: Activity” value in data set [11] is on record as “---”. Also, the “Antibacterial activity, resistant E.coli: Activity” value in data set [12] is on record as “---”. Also, the “Zone of inhibition, A. fumigatus” value in data set [13] was “---”. Moreover, the “Antibacterial activity, E. coli: Activity” value in data set [14] is “---”. Moreover, the “Antibacterial activity, S. aureus: Activity” value in data set [15] is on record as “Active”.
